# Read-outs that look alike come from different tables or passages of the source.
# How the values were obtained:
# human CB2R = target: T1, human CB2R (Homo sapiens, UniProt P34972); experiment: CB2R mediated modulation of cAMP synthesis; format: cell-based
# T1 construct: host or cells: CHO cells
# Experimental: Compounds of the invention are evaluated for their CB2 agonist or inverse agonistic activity in accordance with the following experimental method.
# (§1) CHO cells expressing human CB2R (Euroscreen) are plated at a density of 5000 cells per well in 384 well plates and incubated overnight at 37° C. After removing the media, the cells are treated with test compounds diluted in stimulation buffer containing 1 mM IBMX, 0.25% BSA and 10 uM Forskolin. The assay is incubated for 30 minutes at 37° C. Cells are lysed and the cAMP concentration is measured using DiscoverX—XS cAMP kit, following the manufacturer's protocol. In this setting, agonists will decrease forskolin induced production of cAMP while inverse agonists will further increase forskolin induced production of cAMP. EC50 of agonists are calculated as follows. The maximal amount of cAMP produced by forskolin compared to the level of cAMP inhibited by 1 uM CP55940 is defined as 100%. The EC50 value of each test compound is determined as the concentration at which 50% of the forskolin-stimulated cAMP synthesis is inhibited. Data is analyzed using a four-parameter logistic model. (Model 205 of XLfit 4.0).
# human CB1R = target: T2, human CB1R (Homo sapiens, UniProt P21554); experiment: CB1R mediated modulation of cAMP synthesis; format: cell-based; conditions: CHO cells expressing human CB1R, forskolin-stimulated cAMP
# T2 construct: host or cells: CHO cells
# T2 sequence (P21554 whole entry): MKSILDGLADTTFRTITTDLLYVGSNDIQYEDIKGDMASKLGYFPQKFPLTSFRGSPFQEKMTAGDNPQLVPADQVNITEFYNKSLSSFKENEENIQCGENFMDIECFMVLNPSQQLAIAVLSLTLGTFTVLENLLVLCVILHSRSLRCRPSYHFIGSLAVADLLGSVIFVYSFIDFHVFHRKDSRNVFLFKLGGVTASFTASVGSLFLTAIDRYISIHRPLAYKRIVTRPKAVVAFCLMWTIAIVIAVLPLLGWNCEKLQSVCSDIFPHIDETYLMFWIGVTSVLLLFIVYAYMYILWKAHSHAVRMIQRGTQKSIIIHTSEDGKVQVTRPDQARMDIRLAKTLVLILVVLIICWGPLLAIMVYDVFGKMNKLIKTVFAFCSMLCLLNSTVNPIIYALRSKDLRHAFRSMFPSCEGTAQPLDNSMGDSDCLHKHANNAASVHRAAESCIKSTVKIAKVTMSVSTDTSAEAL
# Experimental: Compounds of the invention are evaluated for their CB1 agonist or inverse agonistic activity in accordance with the following experimental method.
# as §1, with “CB1R” for “CB2R”
# [1] = Human microsomal stability assay; format: in vitro ADME; conditions: human liver microsomes 1 mg protein/ml, 1 uM compound, pH 7.4
# Experimental: The double time point high throughput screen for human liver microsomal metabolic stability is used to measure the in vitro metabolism of test compounds by human liver microsomal enzymes. The data collected are analyzed to calculate a half-life (t½, min) and clearance (expressed as percent hepatic blood flow, % QH) for test compounds. The assay is performed in 50 mM potassium phosphate buffer, pH 7.4 and 2.5 mM NADPH. Test samples are dissolved in DMSO and acetonitrile for a final assay concentration of 1 uM. Human liver microsomes are diluted in assay buffer to a final assay concentration of 1 mg protein/ml. Compound solution and microsome suspension are added to assay buffer for a final incubation volume of 350 ul. The preparation is incubated for 5 min in a 37° C. water bath. The reaction is started by the addition of NADPH. Volumes of 80 ul are removed from the incubation mix at 0, 5, and 30 min after the start of the reaction and added to 160 ul acetonitrile. The supernatant is transferred to 0.25 mm glass fiber filter plates and centrifuged for 5 min at 3000 rpm. Injection volumes of 10 ul are typically added to HPLC columns with formic acid in water or acetonitrile at a flow rate of 0.3 ml/min. Percent loss of parent compound is calculated from the area under each time point to determine the half-life and clearance. Preferred compounds of the invention will have a human liver microsomal stability of <25% QH.
# [2] = Aqueous (equilibrium) solubility assay; format: physicochemical; conditions: aqueous buffer, thermodynamic from solid, 48 hrs equilibrium
# Experimental: The equilibrium solubility of compounds is determined in pH 2, 4.5, 6.8 buffers. Prior to solubility measurement, the crystalline/amorphous characteristics of the sample are determined by observing the powder form under polarized light microscope. Solubility is only measured when compound is crystalline.
# Approximately 2 mg of compound are weighed out into a vial and 1-2 ml of buffer are added into the vial (pHs 2 & 4.5, use 1 ml and for pHs 6.8 and 7.4 use 2 ml of buffer). The vial is rotated for 48 hrs protected from light. After 48 hrs, the sample is transferred into an eppendorf tube and centrifuged for 10 minutes at 14,000 RPM, if the supernatant is not clear, it is filtered (PVDF filter). The clear supernatant is diluted if necessary, before analyzing via HPLC. The final pH of the supernatant or the filtrate is measured and reported. The external calibration curve is used to determine the solubility value. The percentage of extraneous peaks relative to the parent peak is monitored in the standard solution as well as the solubility sample. Preferred compounds of the invention will have a solubility of >100 μg/ml.
# [3] = test system: Salmonella bacterial strains TA98 and TA100; experiment: Ames mutagenicity assay: bacteria reverse mutation screening assay; format: cell-based; conditions: TA98 and TA100, presence or absence of S9
# Experimental: The Ames ^(1) Salmonella bacterial strains used in the abbreviated screening assay ^(2) are TA98 and TA100. Actively growing (log phase) bacteria are incubated with test compound and trace amounts of histidine in the presence or absence of S9 for 48 hours on minimal agar plates. Test compound is dissolved in DMSO to a final concentration of 100 mg/ml. The stock is serially diluted to yield concentrations of 100, 50, 25 12.5 and 6.3 mg/ml. Fifty microliters of dosing solution is combined with top agar and buffer (or S9 mix) and poured on duplicate plates to yield effective doses of 5000, 2500, 1250, 625 and 313 μg/plate. Positive and negative controls plates are included. Formation of colonies after 48 hr incubation at 37° C. is an indication of genetic reversion, either arising spontaneously or caused by the test compound. The average number of spontaneous colonies growing on control plates is compared to the number of colonies on test plates. A fold increase of 2-3× over background is generally considered a positive response for mutagenicity. • 1. Maron, D. M. and Ames, B. N. (1983). “Revised Methods for the Salmonella Mutagenicity Test”. Mutat. Res. 113, 173-215. • 2. D. A. Burke, D. J. Wedd, and B. Burlinson (1996). “Use of the Miniscreen assay to screen novel compounds for bacterial mutagenicity in the pharmaceutical industry”. Mutagenesis 11: 201-205.
# [4] = pH 4.5 buffer, read-out: solubility at pH 4.5
# [5] = pH 6.8 buffer, read-out: solubility at pH 6.8
# T1 sequence (P34972 whole entry): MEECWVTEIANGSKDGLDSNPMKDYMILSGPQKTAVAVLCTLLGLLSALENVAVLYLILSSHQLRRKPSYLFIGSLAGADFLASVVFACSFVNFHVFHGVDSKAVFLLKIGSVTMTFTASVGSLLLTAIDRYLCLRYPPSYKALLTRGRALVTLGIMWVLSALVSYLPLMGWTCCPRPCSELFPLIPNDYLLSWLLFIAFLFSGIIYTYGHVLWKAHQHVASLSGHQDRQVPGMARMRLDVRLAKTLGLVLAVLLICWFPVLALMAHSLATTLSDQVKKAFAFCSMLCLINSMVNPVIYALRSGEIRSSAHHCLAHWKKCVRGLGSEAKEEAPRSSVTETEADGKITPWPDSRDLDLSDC
Compound,EC50 (human CB2R) [nM],"EC50 (human CB1R; CB1 CAMP EC50, Table XI) [nM]",HLM clearance (percent hepatic blood flow) [1] [QH %],"solubility at 48 h [2, 4] [µg/mL]","solubility at 48 h [2, 5] [µg/mL]",Ames [3],"EC50 (human CB1R; CB1 EC50, Table II) [nM]","EC50 (human CB2R; Table II, CHO cells expressing human CB2R, forskolin-stimulated cAMP, read-out: CB2 EC50) [nM]","EC50 (human CB1R; Table II, read-out: CB1 EC50) [nM]","EC50 (human CB1R; Table XI, read-out: CB1 CAMP EC50) [nM]"
CC(C)(C)c1csc(NC(=O)C(C)(C)S(=O)(=O)c2ccc(F)cc2)n1 [Example 252 WO08014199],0.401,934,85,1.74,1.62,negative,,,,
CC(C)(C)n1nnc(NC(=O)C(C)(C)S(=O)(=O)C2CCOCC2)n1 [Table II compound 1],21,> 50000,<30.10,> 2120,> 1750,negative,> 20000,,,
CC(C)(C)n1nnc(NC(=O)C(C)(C)S(=O)(=O)CC2CCOCC2)n1 [Table II compound 2],50,> 50000,<30.10,391,353,negative,> 50000,,,
CC[C@H](C)S(=O)(=O)C(C)(C)C(=O)Nc1nnn(C(C)(C)C)n1 [Table II compound 5],,,<30.10,1210,1150,negative,,101,> 50000,> 50000
CC(C)(C)n1nnc(NC(=O)C(C)(C)S(=O)(=O)c2ccc(F)cc2)n1 [Table II compound 6],22,39500,<30,133,122,negative,39500,,,
